Data published in paper PMC6943629, “Binding of Gold(III) Porphyrin by the Pro-metastatic Regulatory Protein Human Galectin-3” (Molecules, 2019).
Read-outs that look alike come from different tables or passages of the source. Blank lines part the entries; values can stand above or below the compound they belong to.

Columns and labels:
[1] = target: T1, Gal3 FL (Homo sapiens, UniProt P17931); test: MST capillary scan, fit to initial fluorescence, Gal3 FL; assay type: binding; conditions: capillary scan values, time point 0, read-out: KD from fit of initial (before thermophoresis) fluorescence
T1 construct: Recombinant human galectin-3 (Gal3, 26 kDa, full-length galectin-3 or Gal3 FL); made in house
T1 sequence (P17931 whole entry): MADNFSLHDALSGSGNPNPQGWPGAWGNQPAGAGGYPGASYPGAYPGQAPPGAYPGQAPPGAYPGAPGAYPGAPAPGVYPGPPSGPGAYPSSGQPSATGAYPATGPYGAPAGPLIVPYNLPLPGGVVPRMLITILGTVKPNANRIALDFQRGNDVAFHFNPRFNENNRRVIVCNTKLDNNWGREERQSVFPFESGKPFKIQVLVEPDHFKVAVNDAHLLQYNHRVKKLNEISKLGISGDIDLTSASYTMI
Excerpt: (§1) The large and unwanted initial fluorescence changes (Figure 1D) are unlikely to originate from Trp181 near the lactose-binding site of Gal3 CRD, because the MST was run using red fluorescence excitation and emission wavelengths. Also, although Gal3 FL has three tryptophans (Trp22, Trp26 and Trp181) instead of a single one (Trp181) in Gal3 CRD, it appears less affected (Figure 1A versus D). Therefore, there is more likely an involvement of NT-647-NHS-labelled lysine residues near the binding site of Au^3+TTPS. This involvement of labelled lysines enabled the fit based on the initial fluorescence data (Figure 2). […] Therefore, we initiated tryptophan fluorescence spectroscopy measurements (TFS).
(§2) Microscale thermophoresis (MST) is a technique to quantify biomolecular interactions by measuring the directed movement of molecules in a microscopic temperature gradient induced by an infrared laser. The directed movement of molecules in thin capillaries was detected and quantified by means of a red-light fluorophore (NT-647-NHS, with excitation maximum at 647 nm and emission maximum at 670 nm) covalently linked to Gal3 proteins. […]
(§3) A two-fold dilution series of ligand concentrations was established ranging from 239 μM to […], with a constant concentration of 4 μM Gal3 FL and 22 μM Gal3 CRD. […] The data were analyzed using the MO Affinity Analysis software v2.2.4.

[2] = target: T2, Gal3 CRD (Homo sapiens, UniProt P17931); test: Isothermal titration calorimetry (ITC), Gal3 CRD; assay type: binding; conditions: Gal3 CRD 32.67 μM, also at twice higher concentrations
T2 construct: The carbohydrate recognition domain (Pro106-Ile250) of human Gal3 (Gal3 CRD); His-tag; made in house; host or cells: Escherichia coli BL21(DE3)
T2 sequence (P17931 106-250): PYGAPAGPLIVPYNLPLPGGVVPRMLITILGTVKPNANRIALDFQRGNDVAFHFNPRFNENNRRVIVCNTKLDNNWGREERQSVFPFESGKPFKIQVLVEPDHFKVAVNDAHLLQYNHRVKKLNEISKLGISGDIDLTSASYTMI

[3] = target: T3, full-length Gal3 (Gal3 FL) (Homo sapiens, UniProt P17931); test: Microscale thermophoresis (MST), Gal3 FL; assay type: binding
T3 construct: Recombinant human galectin-3 (Gal3, 26 kDa, full-length galectin-3 or Gal3 FL); made in house
T3 sequence (P17931 whole entry): as the sequence (P17931 whole entry) above
Excerpt: Microscale thermophoresis (MST) is a very sensitive, immobilization-free interaction technique that is based on the speed of migration away from a central point in the capillary that is hit by an infra-red laser at time 0 (Figure 1).
Microscale thermophoresis (MST) is a technique to quantify biomolecular interactions by measuring the directed movement of molecules in a microscopic temperature gradient induced by an infrared laser. The directed movement of molecules in thin capillaries was detected and quantified by means of a red-light fluorophore (NT-647-NHS, with excitation maximum at 647 nm and emission maximum at 670 nm) covalently linked to Gal3 proteins. For labelling, we used two times the concentration of the protein (16 μM Gal3 FL, 43 μM Gal3 CRD) for the fluorophore. Removal of excess fluorphore was combined with buffer exchange into 20 mM Hepes, pH 7.4 with 150 mM NaCl and 0.05% Tween-20.
A two-fold dilution series of ligand concentrations was established ranging from 239 μM to […], with a constant concentration of 4 μM Gal3 FL and 22 μM Gal3 CRD. The samples were loaded into standard glass capillaries and readings were performed with the red light of a Monolith NT.115, with LED power setting of 20% and an MST power setting of 40%. […] The same procedure was repeated for Gal3 CRD and using roscovitine as a ligand. The data were analyzed using the MO Affinity Analysis software v2.2.4.

[4] = target: T2, Gal3 CRD; test: MST capillary scan, fit to initial fluorescence, Gal3 CRD; assay type: binding
Excerpt: as §1, §2, §3

[5] = target: T2, Gal3 CRD; test: Tryptophan fluorescence spectroscopy (TFS), Gal3 CRD; assay type: binding; conditions: 10 μM Gal3 CRD; 25 °C; pH 7.4; read-out: KD (TFS, non-linear regression)
Excerpt: (§4) The formation of Gal3–Au^3+TTPS complexes can be followed by the changes in the intrinsic or tryptophan fluorescence spectroscopy. Binding of the metal-based drug to Gal3 FL caused a red shift of the maximum emission wavelength of about 9 nm (339 nm to 348 nm), as well as a decrease in fluorescence intensity. This is indicative of indole side chains of Trp residues being exposed on the protein surface. […] The hyperbolic nature of the binding curves of gold porphyrin to of Gal3 FL and Gal3 CRD is indicative of the presence of a single binding site for the ligand.
(§5) Figure 3 TFS measurements of complex formation with Gal3. […] The data points were plotted as means ± standard error of the mean for three independent experimental data sets.
(§6) Tryptophan fluorescence spectroscopy (TFS) was performed on a Shimadzu spectrofluorometer (Shimadzu, Kyoto, Japan). […] Total fluorescence was calculated after normalization of the fluorescence spectra and corrected for dilution. In order to account for the inner filter and the self-absorption effects, the experiments were always carried out on samples with absorbance (OD280nm) less than 0.05. Absorbance was measured using a spectrophotometer (Beckman, Brea, CA, USA). All measurements were performed at 25 °C, with the temperature of the samples determined in the cuvette with an accuracy of ± 0.2 °C.

[6] = target: T1, Gal3 FL; test: Isothermal titration calorimetry (ITC), Gal3 FL; assay type: binding; conditions: 22 °C
Excerpt: We used isothermal titration calorimetry (ITC), which is a molecular interaction technique ideal for the reliable determination of stoichiometric ratios in the protein soluble state. […] The reaction is exothermic and enthalpy driven with a heat release of −5363 ± 196.4 cal/mol, indicating a substantial number of non-covalent bonding during complex formation. Moreover, the interaction also profits from a significant entropic contribution of 1956 cal/mol.
A VP-ITC MicroCal instrument (Malvern Panalytical Ltd, Malvern, UK) with cell volume of 1.4253 mL was used at 22 °C for the measurement of the stoichiometric ratio and the enthalpy/entropy contributions to the binding of gold prophyrin to Gal3 FL. Prior to the experiment, the Gal3 FL protein was dialyzed extensively against 20 mM Hepes at pH 7.4 and 150 mM NaCl, the buffer used for the experiment.

[7] = target: T1, Gal3 FL; test: Tryptophan fluorescence spectroscopy (TFS), Gal3 FL; assay type: binding; conditions: 2 μM Gal3 FL; 25 °C; pH 7.4; read-out: KD (TFS, non-linear regression)
Excerpt: as §4, §5, §6

[8] = test system: Gal3; conditions: cited from earlier work
[9] = target: T2, Gal3 CRD; design: method as in PMID 31094416; conditions: ref 46; cited from earlier work

Kd [1]: 5.83 ± 0.65 µM
ITC titration result with Gal3 CRD [2]: no measurable results
binding after SDS denaturation of Gal3 FL (SD test) ([3]; Gal3 FL denatured with 4% SDS, 40 mM DTT, 95 °C, same concentration series): without observing binding
Kd ([3]; Gal3 FL labelled with NT-647-NHS, 4 μM Gal3 FL, thermophoresis read-out, read-out: KD (MST curves)): 2.84 ± 1.03 µM
Kd ([4]; Gal3 CRD, capillary scan values, time point 0, read-out: KD from fit of initial (before thermophoresis) fluorescence): 25.9 ± 0.65 µM
weaker binding of truncated Gal3 (CRD) versus Gal3 FL ([4]; comparison of initial fluorescence fits): at Least 5 fold
Kd [5]: 22.7 ± 5.6 µM
change in Gibbs free energy (ΔG) (ITC) [6]: -7.326 kcal/mol
entropic contribution (ITC) [6]: 1.956 kcal/mol
heat release (enthalpy) (ITC) [6]: -5.363 ± 0.1964 kcal/mol
stoichiometry (ITC) [6]: 1.02 ± 0.03 sites
Kd ([6]; 20 mM Hepes pH 7.4, 150 mM NaCl, read-out: equilibrium dissociation constant KD (ITC)): 3.78 ± 0.27 µM
Kd [7]: 2.6 ± 0.6 µM
Compound: 5,10,15,20-Tetrakis(4-sulfonatophenyl)-porphyrin-Au(III)chloride [Au^3+TPPS]

Compound: OC[C@H]1O[C@@H](O[C@H]2[C@H](O)[C@@H](O)C(O)O[C@@H]2CO)[C@H](O)[C@@H](O)[C@H]1O (mixture of isomers) [lactose]
inhibition of Zn^2+TTPS binding to Gal3 ([8]; ref 42): did not inhibit

Compound: CC(=O)N[C@H]1C(O)O[C@H](CO)[C@@H](O[C@@H]2O[C@H](CO)[C@H](O)[C@H](O)[C@H]2O)[C@@H]1O (some centres unmarked) [N-acetyllactosamine]
Kd ([8]; ref 43): 25 µM
Kd ([8]; ref 44): 28 µM
Kd ([8]; ref 45): 112 µM
Kd ([8]; ref 46): 118 µM

Compound: CC[C@H](CO)Nc1nc(NCc2ccccc2)c2ncn(C(C)C)c2n1 [roscovitine, reference compound]
affinity between Gal3 FL and ligand (MST) ([3]; Gal3 FL, MST): no affinity

Compound: CD146: cluster of differentiation 146, melanoma cell adhesion molecule, cell surface glycoprotein
affinity for Gal3 CRD [9]: unmeasurable
